{"source": "patent US7258999B2", "about": "“PTH responsive gene” (Wyeth, priority 2002, dated 2007)", "key": {"[1]": {"system": "PAIGB expression in ROS 17/2.8 cells", "experiment": "Real time PCR of PAIGB expression in ROS 17/2.8 cells", "format": "cell-based, rat", "conditions": "for effect on PAIGB expression after 4 hours of treatment: estrogen 10 nM, tamoxifen 0.1 μM, BMP2 300 ng/ml, calcitonin 5 ng/ml", "source_text": "Applicants performed multiplex real time PCR (TaqMan) analysis on previously DNAsed samples using gene specific probe and primers and 18S ribosomal RNA probe and primer sets purchased from Applied Biosystem. (Foster City, Calif.) The samples were DNAsed according to the protocol provided by Ambion (DNA-free kit). TaqMan probe and primers for PAIGB was identify using Primer Express computer program. The sequence for rat PAIGB TaqMan probe was 6FAM-5′[…] (SEQ ID NO: 16) forward and reverse primers were 5′[…] 3′ (SEQ ID NO:17) and 5′ […] 3′ (SEQ ID NO:18) respectively. The final concentrations for probes were 500 nM and 40 nM for PAIGB and 18S ribosomal RNA or GAPDH respectively. The concentrations of the primers were 500 nM for PAIGB forward and reversed primers while 18S primers were 10 and 20 nM for forward and reversed primer respectively or 40 nM for GAPDH primers. Standards for rat samples were made from rat tibia or brain RNA in the range of 250 ng to 0.1 ng, while standards for mouse specific TaqMan were made from mouse brain RNA and human standards from human brain RNA (Clonetech, Palo Alto, Calif.) spanning the same range of concentration. Primers and probes for mouse PAIGB were: forward 5′ […] 3′ (SEQ ID NO:19), reverse, 5′ […] (SEQ ID NO:21). Primers and probes for human PAIGB were: forward 5′ […] 3′ (SEQ ID NO:22), reverse 5′ […] 3′(SEQ ID NO: 24). The Taq-man analysis was done using ABI 7700 Sequence Detector under following conditions: 30 min at 48° C., 10 min at 95° C. and 40 cycles of 15 sec at 95° C. and 60 sec at 60° C. Analysis of real-time PCR analysis was performed using (Sequence Detector, Macintosh) program.\nFive cell types were primarily used in our experiments. Rat osteoblast cell line (ROS 17/2.8) that expresses moderate levels of PTH receptor 1 (Rodan et al, Rev. Eukaryotic Gene Expression 1:85-98, 1991) were used to perform in vitro experiments. ROS cells were maintained under standard cell culture conditions: 10% heat inactivated FBS in Dulbecco's Modified Eagle Medium with Nutrient Mixture F-12 (DMEM/F12) media, 1% Penicillin/Streptomycin and 1% Glutamax. Mouse cell line C3H10T½ (ATCC# CCL226) as a representative of mouse osteoprogenitor cell line were maintained in Eagles Minimal Essential Media (EMEM) with the addition of 10% heat inactivated FBS and 1% Penicillin/Streptomycin and 1% Glutamax. UMR106 rat osteoblastic cells (ATCC# CRL1661) were cultured in Dulbecco's Modified Eagle Medium (DMEM) supplemented with 10% heat inactivated FBS, 1% Penicillin/Streptomycin and 1% Glutamax. The U2OS human osteoblastic cells (ATCC# HTB96) were cultured in McCoy's 5A Medium Modified supplemented with 10% FBS, 1% Penicillin/Streptomycin and 1% Glutamax. The human HOB-03-CE6 cell line (Bodine, V. N. P., et. al., J. Cell. Biochem., 65: 368-387,1997) was maintained in phenol red free DMEM/F12 media supplemented with 10% heat inactivated FBS and 1% Penicillin/Streptomycin and 1% Glutamax.\nROS 17/2.8 rat osteoblast cell line that express PTH receptor (˜80000 receptors/cell) were treated with increased doses of PTH: 1 nM, 10 nM, 100 nM and 1000 nM. Real time PCR using rat specific Taq-man probes and primers were used to examine the changes in PAIGB expression with PTH treatment.\nTime course of PTH induction of PAIGB expression was examined. ROS 17/2.8_cells were treated with 10 nM PTH and RNA was harvested at 1, 2, 4, 6, 8 and 24 hours post treatment."}, "[2]": {"system": "PAIGB expression in UMR106 cells", "experiment": "Real time PCR of PAIGB expression in UMR106 cells", "format": "cell-based, rat", "source_text": "Applicants performed multiplex real time PCR (TaqMan) analysis on previously DNAsed samples using gene specific probe and primers and 18S ribosomal RNA probe and primer sets purchased from Applied Biosystem. (Foster City, Calif.) The samples were DNAsed according to the protocol provided by Ambion (DNA-free kit). TaqMan probe and primers for PAIGB was identify using Primer Express computer program. The sequence for rat PAIGB TaqMan probe was 6FAM-5′[…] (SEQ ID NO: 16) forward and reverse primers were 5′[…] 3′ (SEQ ID NO:17) and 5′ […] 3′ (SEQ ID NO:18) respectively. The final concentrations for probes were 500 nM and 40 nM for PAIGB and 18S ribosomal RNA or GAPDH respectively. The concentrations of the primers were 500 nM for PAIGB forward and reversed primers while 18S primers were 10 and 20 nM for forward and reversed primer respectively or 40 nM for GAPDH primers. Standards for rat samples were made from rat tibia or brain RNA in the range of 250 ng to 0.1 ng, while standards for mouse specific TaqMan were made from mouse brain RNA and human standards from human brain RNA (Clonetech, Palo Alto, Calif.) spanning the same range of concentration. Primers and probes for mouse PAIGB were: forward 5′ […] 3′ (SEQ ID NO:19), reverse, 5′ […] 3′ (SEQ ID NO:20) anti-sense and probe 5′ 6FAM-[…] (SEQ ID NO:21). Primers and probes for human PAIGB were: forward 5′ […] 3′ (SEQ ID NO:22), reverse 5′ […] […]"}}}
{"molecule": "CCCCC[C@H](O)/C=C/[C@H]1[C@H](O)CC(=O)[C@@H]1C/C=C\\CCCC(=O)O", "note": "[PGE2, prostaglandin E2]", "values": [{"measurement": "induction of PAIGB mRNA expression", "setting": "[1]; two concentrations 10 nM and 10 μM, 4 hours", "result": "only at the lower dose"}]}
{"molecule": "COc1ccc(C2CNC(=O)C2)cc1OC1CCCC1", "note": "(stereo not shown) [Rolipram]", "values": [{"measurement": "PAIGB expression", "setting": "[1]; ROS 17/2.8 cells, data not shown", "result": "Increases"}, {"measurement": "PAIGB expression", "setting": "[2]; UMR 106 cells, data not shown", "result": "Increases"}]}
{"molecule": "Nc1ncnc2c1ncn2C1CCCO1", "note": "(stereo not shown) [SQ 22536]", "values": [{"measurement": "blocking of the effect of PTH on PAIGB expression", "setting": "[1]; 200 μM, 2 hours pretreatment, then 10 nM PTH 4 hours", "result": "completely blocks"}]}
{"molecule": "C[C@@H]1C[C@H]2[C@@H]3CCC4=CC(=O)C=C[C@]4(C)[C@@]3(F)[C@@H](O)C[C@]2(C)[C@@]1(O)C(=O)CO", "note": "[dexamethasone]", "values": [{"measurement": "increase in PAIGB expression", "setting": "[1]; 100 nM, 4 hours", "result": "2-3 fold"}]}
{"molecule": "CC(C)NCC(O)c1ccc(O)c(O)c1", "note": "(stereo not shown) [isoproterenol]", "values": [{"measurement": "increase in PAIGB expression", "setting": "[1]; data not shown, concentration and cell line not restated", "result": 2, "unit": "fold"}]}
{"molecule": "CC/C(=C(\\c1ccccc1)c1ccc(OCCN(C)C)cc1)c1ccccc1", "note": "[tamoxifen]", "values": [{"measurement": "effect on PAIGB expression after 4 hours of treatment", "setting": "[1]; 4 hours", "result": "did not have any effect"}]}
{"molecule": "C=C1CC[C@H](O)C/C1=C/C=C1\\CCC[C@]2(C)[C@@H]([C@H](C)CCCC(C)C)CC[C@@H]12", "note": "[vitamin D3]", "values": [{"measurement": "PAIGB expression in UMR106 cells", "setting": "[2]; UMR106 cells", "result": "induced"}]}
{"molecule": "PKC inhibitor: Protein Kinase C inhibitor (PKC)19-27, an inhibitor of PKC signaling pathway (RFARKGALR; pseudosubstrate peptide; UniProt P17252 19-27, looked up, fragment)", "values": [{"measurement": "blocking of PTH induced PAIGB expression", "setting": "[1]; 10 μM, 2 hours pretreatment, then 10 nM PTH 4 hours", "result": "little to no effect"}]}
{"molecule": "calcitonin", "values": [{"measurement": "effect on PAIGB expression after 4 hours of treatment", "setting": "[1]; 4 hours", "result": "did not have any effect"}]}
